# Measurements taken from patent US20090275605A1, “3,11 b-cis-Dihydrotetrabenazine for the Treatment of a Proliferative Disease or an Inflammatory Disease” (CAMBRIDGE LABORATORIES (IRELAND) LIMITED, priority 2005, published 2009).
# Several values for one entry are separate records, joined by “and”; a condition that tells them apart may be missing. Identical values can stand only once. Entries after “also recorded” stand apart in the source; their conditions may differ.
# What was measured:
# [1] = system: T cells (balb/c mouse spleen cells); test: T cell proliferation (3H-thymidine incorporation, anti-CD3 coated plates); type: cell-based; conditions: plates 1-3 are triplicates
# Method: The compounds of the invention were tested to determine the extent to they can inhibit T cell proliferation. T cells are responsible for co-ordinating the adaptive immune response and are drivers of inflammation in a wide range of disease states.
# HBSS+2% HEPES buffer (500 ml+10 ml), Alpha MEM (500 ml)+2% HEPES (10 ml)+1% Pen/strep (5 ml)+2% L-Glutamine (10 ml)+50 μM 2-ME (500 μl) and Normal Mouse serum (NMS)
# 1. Coat 3×96 well plates columns 1-8, rows A-H with 100 μl anti-mouse CD3 at […] in PBS. 192 well in total, therefore made up 24 mls in PBS by adding 17 μl of stock at 1.44 mg/ml. Incubate 2 hours 37° C. 2. Pooled blood from 2 balb/c mice following cardiac puncture for preparation of NMS and removed spleens into HBSS+Hepes. 3. Placed blood at 37° C. for 30 minutes to clot, spun 3,000 rpm, 10 minutes in chilspin. Removed serum, filter sterilised and kept in fridge until use. 4. Transferred spleens to petri dishes containing 10 ml HBSS, used clean sterile wire mesh placed over spleen to release cells using a glass rod. Washed cells off mesh using pasteur pipette and transferred to a 15 ml tube. Spun at 1000 rpm for 10 minutes at room temperature (RT). 5. Resuspended cells, added 0.5 ml sterile DW to lyse RBC, mixed and immediately diluted in HBSS, transfered to 50 ml tube passing through cell strainer (70 μM) to remove debris, spun as above, washed cells once more in HBSS and finally resuspended in […] alpha MEM containing supplements (as above). 6. Cell counts—252 cells×2×5×10^4=2.52×10^7 cells/ml in 4 mls=10^8 cells in total. Dilute 2 mls to 25 mls to give a cell concentration of 2×10^6 cells/ml. 7. Added 250 μl NMS to cells to give a concentration of 1%. 8. Washed anti-CD3 coated plates 3×PBS. 9. Transferred 100 μl aliquots of cells to coated wells, rows A-H columns 1-8 of 3×96-well plates. Add equal volume of compounds diluted in a 96 well plate as shown below.
# Transferred 3.5 μl compound at 10 mM to 346.5 μl media (1/100), transferred 35 μl of 1/100 dilution to 315 μl media (1/10) and so on down plate to give serial 1/10 dilutions of compound. Transferred 100 μl aliquots of different compound dilutions to wells of triplicate plates containing T cells.
# Culture for 48 hours, then add a drop (16 μl) of ^3H-thymidine to each well and incubate overnight at 37° C. 5% CO2. Harvest. Measure ^3H-thymidine incorporation.
# [2] = target: T1, Sigma σ2 Receptor (Rattus norvegicus, UniProt Q5U3Y7); test: Sigma σ2 receptor radioligand binding ([3H]Ifenprodil); conditions: 10 μM solutions; Wistar rat brain; 3 nM [3H]Ifenprodil
# T1 construct: Source: Wistar rat brain; from tissue; host or cells: Wistar rat brain
# T1 sequence (Q5U3Y7 1-176): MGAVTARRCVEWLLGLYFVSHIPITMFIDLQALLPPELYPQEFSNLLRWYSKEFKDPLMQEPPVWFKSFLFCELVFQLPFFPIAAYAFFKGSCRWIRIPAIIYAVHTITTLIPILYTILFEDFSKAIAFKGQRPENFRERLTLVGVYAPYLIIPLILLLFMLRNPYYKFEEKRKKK
# Method: The four dihydrotetrabenazine isomers A, B, C and D subjected to specific binding assays to test their ability to bind to the sigma-1 and sigma-2 receptors.
# Reference: Hashimoto et al., Eur. J. Pharmacol., 236:159-163, (1993) Source: Wistar rat brain
# Incubation time/Temp: 60 minutes @ 37° C.
# Bmax: 1.3 pmole/mg protein Specific binding: 85% Quantitation method: Radioligand binding Significance criteria: ≧50% of maximum stimulation or inhibition
# [3] = target: T2, Sigma σ1 Receptor (Homo sapiens, UniProt Q99720); test: Sigma σ1 receptor radioligand binding ([3H]Haloperidol); conditions: for Percentage Inhibition of Specific Binding at Sigma-1 Receptor: 10 μM solutions, human jurkat cells, 8 nM [3H]Haloperidol
# T2 construct: Source: Human jurkat cells; endogenous in cells; host or cells: Human Jurkat cells
# Method: The four dihydrotetrabenazine isomers A, B, C and D subjected to specific binding assays to test their ability to bind to the sigma-1 and sigma-2 receptors. (a) Sigma σ1 Receptor: Reference: […] et al., Pharmacol. Exp. Ther., 289:251-260, (1999) Source: Human jurkat cells […] Vehicle: 1% DMSO Incubation time/Temp: 4 hours (25° C.
# [4] = system: LPS/IFNγ stimulated human CD14+ monocytes; test: LPS/IFN stimulated production of cytokines by human monocytes (CBA cytokine analysis); type: cell-based
# Method: The compounds of the invention were tested to determine the extent to they can modulate the production of cytokines by human monocytes. Monocytes are precursors of macrophages and are a key source of inflammatory cytokines in a wide range of disease states.
# The following treatment groups were set up.
# MACS Buffer: 1×PBS pH 7.2, 2 mM EDTA (Sigma), 5% human AB serum Culture Media: 500 ml RPMI 1640 (Invitrogen), 5 ml Penstrep (Sigma), 5 ml L-glutamine (Invitrogen), 10 ml HEPES (Sigma), 5% autologous plasma. Compounds: Stock at 10 mM in absolute ethanol. LPS: Salmonella abortis at 1 mg/ml (Sigma, Cat # LI 887). IFNγ: Recombinant human at 10 μg/ml (BD Pharmacia, Cat # 554617). MACS CD14 positive selection beads and LS columns (Miltenyi Biotech). CD14: FITC antibody (Miltenyi Biotech) Buffy coat obtained from Bristol National Blood Services. 1 ml of blood should give 7×10^6 total cells.
# Spin buffycoat at 3500 rpm, 10 min. Remove upper plasma layer and heat-inactivate at 56° C., 30 min. Spin at 3500 rpm, 10 min to remove heat-inactivated complement proteins etc.
# 1. Resuspend remaining buffycoat in an equal volume of RPMI 1 640 medium and mix by inversion. 2. Prewarm histopaque (Sigma) to room temperature (RT) and add 10 ml to a universal. 3. Gently overlay with 15 ml blood/medium mix. 4. Spin at 1600 rpm for 25 minutes at RT (no brake). 5. PBMC are separated into the interface layer between the medium and the histopaque, remove cells to a 50 ml Falcon and add 10 ml medium.
# 6. Spin at 1800 rpm for 10 min at RT.
# 7. Wash ×3 with 40 ml RPMI medium and resuspend in culture medium. Isolate CD14^+ Cells by Positive Selection with CD14^+ MicroBeads Work on ice, with pre-cooled solutions. 1. Determine cell numbers (313×10×5×10^4=1.565×10^8 total cells) 2. Remove 100 μl cell sample for Fluorescence-Activated Cell-Sorting (FACS) analysis (pre-selection sample). 3. Spin at 1800 rpm for 10 minutes at 4° C. Remove supernatant. 4. Resuspend pellet in 80 μl buffer per 1×10^7 total cells (2400 μL/total cells). 5. Add 20 μl CD14 MicroBeads per 1×10^7 total cells (400 μl/total cells). 6. Mix well and incubate for 15 minutes at 4-8° C. 7. Wash cells with 1-2 ml buffer, spin at 300×g, 10 minutes at 4° C. Remove supernatant. 8. Resuspend up to 1×10^8 cells in 500 μl buffer (1 ml/total cells). Magnetic Separation with LS Column 1. Place column in magnetic field of MACS® Separator. Rinse column with 3 ml of MACS buffer. 2. Add cell suspension to column. 3. Collect unlabelled cells which pass through. Wash column with 3×3 ml buffer, allowing the column reservoir to empty between each wash. Collect total effluent (unlabelled cell fraction). 4. Remove column from separator and place on collection tube. 5. Add 5 ml buffer to column, immediately flushing out fraction with magnetically labelled cells by applying column plunger. 6. Spin cells in MACS Buffer and resuspend cell pellet in media. 7. Perform cell count on positively selected cells. • 71×20×5×10^4=7.1×10^7 cells/ml. Have 1.75 ml∴1.24×10^8 total cells. 8. Take sample to check purity by FACS add 10 μl CD14-FITC antibody and incubate, 5 minutes at 4-8° C.
# Prepare compounds at 10 mM in absolute ethanol. Dilute prior to culture in media to the required concentrations.
# Isolated CD14^+ monocytes were cultured in 24-well plates at 1×10^6 cells/ml/well. The monocytes were cultured in the presence of the test compounds and controls at various dilutions as set out in the table below. After overnight incubation, LPS (10 μg/ml) and IFNγ (100 ng/ml) were added to stimulate monocyte activation and elevate CB2 expression. After 48 hours, the supernatants were removed for CBA cytokine analysis.
# Bring all buffers to room temperature and vortex before use 1. Make up assay buffer by adding to 450 ml distilled H2O and mixing gently. Store at 4° C. 2. Make up biotin-conjugate mix by 600 μl of each biotin-conjugates into a universal. 3. Make up bead mix by adding 300 μl of each bead set. 4. […]
# T2 sequence (Q99720 whole entry): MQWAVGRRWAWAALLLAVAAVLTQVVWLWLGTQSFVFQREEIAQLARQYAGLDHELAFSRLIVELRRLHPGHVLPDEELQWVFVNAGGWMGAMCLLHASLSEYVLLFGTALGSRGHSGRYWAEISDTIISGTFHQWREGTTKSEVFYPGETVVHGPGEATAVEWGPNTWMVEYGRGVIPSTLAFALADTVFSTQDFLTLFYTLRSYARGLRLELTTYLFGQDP
smiles,measurement,setting,value
"CCCCCCC(C)(C)c1cc(O)c2c(c1)OC(C)(C)C1CCC(=O)CC21 (stereo not shown) [Nab, Nabilone, reference compound]",T cell Proliferation (3H-thymidine incorporation),[1]; listed as B = 10 μM,72188.2 and 78370.5 and 40910.7
same,T cell Proliferation (3H-thymidine incorporation),[1]; listed as C = 1 μM,48534.9 and 44235.7 and 52155.5
same,T cell Proliferation (3H-thymidine incorporation),[1]; listed as D = 100 nM,65222 and 55348.5 and 41607.6
same,T cell Proliferation (3H-thymidine incorporation),[1]; listed as E = 10 nM,44970.2 and 46765.1 and 36442
same,T cell Proliferation (3H-thymidine incorporation),[1]; listed as F = 1 nM,36994.3 and 35152.2 and 37988.7
same,T cell Proliferation (3H-thymidine incorporation),[1]; listed as G = 100 pM,37202.7 and 44920.7 and 36359.1
same,T cell Proliferation (3H-thymidine incorporation),[1]; listed as H = 10 pM,38818.1 and 34530 and 39295.7
"COc1cc2c(cc1OC)[C@@H]1C[C@@H](O)[C@H](CC(C)C)CN1CC2 (single isomer, unassigned) [Isomer A]",Percentage Inhibition of Specific Binding at Sigma-2 Receptor,[2],64%
same,Percentage Inhibition of Specific Binding at Sigma-1 Receptor,[3],48%
"COc1cc2c(cc1OC)[C@H]1C[C@H](O)[C@@H](CC(C)C)CN1CC2 (single isomer, unassigned) [Isomer B]",Percentage Inhibition of Specific Binding at Sigma-2 Receptor,[2],64%
same,T cell Proliferation (3H-thymidine incorporation),"[1]; listed as A = 100 μM, listed as RU350",42 and 51.4 and 28
same,T cell Proliferation (3H-thymidine incorporation),"[1]; listed as C = 1 μM, listed as RU350",62557.5 and 58812.6 and 46179.1
same,T cell Proliferation (3H-thymidine incorporation),"[1]; listed as D = 100 nM, listed as RU350",63867.2 and 67792.8 and 54194.4
same,T cell Proliferation (3H-thymidine incorporation),"[1]; listed as E = 10 nM, listed as RU350",66290 and 70736.7 and 53277.2
same,T cell Proliferation (3H-thymidine incorporation),"[1]; listed as F = 1 nM, listed as RU350",49054.3 and 74224 and 58924.4
same,T cell Proliferation (3H-thymidine incorporation),"[1]; listed as G = 100 pM, listed as RU350",46056.3 and 60937.4 and 59965.8
same,T cell Proliferation (3H-thymidine incorporation),"[1]; listed as H = 10 pM, listed as RU350",52646.7 and 41897.1 and 57220.4
same,reduced production of IL-4,"[4]; LPS/IFN stimulated monocytes, 100 μM to 10 pM, FIG. 2",at the majority of concentrations tested
same,reduced production of IL-2,"[4]; LPS/IFN stimulated monocytes, 100 μM to 10 pM, FIG. 3",at all concentrations tested
same,reduced production of IL-5,"[4]; LPS/IFN stimulated monocytes, 100 μM to 10 pM, FIG. 4",at the majority of concentrations tested
same,reduced production of IL-10,"[4]; LPS/IFN stimulated monocytes, 100 μM to 10 pM, FIG. 5",at the majority of concentrations tested
same,reduced production of IL-12,"[4]; LPS/IFN stimulated monocytes, 100 μM to 10 pM, FIG. 6",at all concentrations tested
same,production of a range of different cytokines in monocytes,"[4]; monocytes stimulated by LPS/IFN, FIGS. 1 to 6",reduced the production
same,Percentage Inhibition of Specific Binding at Sigma-1 Receptor,[3],82%
same,binding to the sigma-1 receptor (in words),[3]; comparison of the four isomers,bind more strongly; also recorded: stronger binding
